In publication PMC10866072, “Design, synthesis, molecular modelling and biological evaluation of novel 6-amino-5-cyano-2-thiopyrimidine derivatives as potent anticancer agents against leukemia and apoptotic inducers” (Journal of Enzyme Inhibition and Medicinal Chemistry, 2024):

Key:
K-562 = format: cell-based; conditions: 48 h
BT-549 = format: cell-based; conditions: one dose 10^-5 M, 48 h
OVCAR-3 = format: cell-based; conditions: one dose 10^-5 M, 48 h
HCT-15 = format: cell-based; conditions: one dose 10^-5 M, 48 h
IGROV1 = format: cell-based; conditions: 48 h
KM12 = format: cell-based; conditions: one dose 10^-5 M, 48 h
SW-620 = format: cell-based; conditions: one dose 10^-5 M, 48 h
SF-295 = format: cell-based; conditions: one dose 10^-5 M, 48 h
UACC-62 = format: cell-based; conditions: one dose 10^-5 M, 48 h
HCT-116 = format: cell-based; conditions: one dose 10^-5 M, 48 h
SNB-19 = format: cell-based; conditions: one dose 10^-5 M, 48 h
NCI-H460 = format: cell-based; conditions: one dose 10^-5 M, 48 h
HOP-62 = format: cell-based; conditions: one dose 10^-5 M, 48 h
UO-31 = format: cell-based; conditions: one dose 10^-5 M, 48 h
SK-OV-3 = format: cell-based; conditions: one dose 10^-5 M, 48 h
OVCAR-5 = format: cell-based; conditions: one dose 10^-5 M, 48 h
SF-539 = format: cell-based; conditions: one dose 10^-5 M, 48 h
A498 = format: cell-based; conditions: one dose 10^-5 M, 48 h
MCF7 = format: cell-based; conditions: one dose 10^-5 M, 48 h
MDA-MB-468 = format: cell-based; conditions: one dose 10^-5 M, 48 h
NCI-H226 = format: cell-based; conditions: one dose 10^-5 M, 48 h
SK-MEL-28 = format: cell-based; conditions: one dose 10^-5 M, 48 h
DU-145 = format: cell-based; conditions: one dose 10^-5 M, 48 h
RPMI-8226 = format: cell-based; conditions: one dose 10^-5 M, 48 h
A549/ATCC = format: cell-based; conditions: one dose 10^-5 M, 48 h
SK-MEL-2 = format: cell-based; conditions: one dose 10^-5 M, 48 h
NCI/ADR-RES = format: cell-based; conditions: one dose 10^-5 M, 48 h
SR = format: cell-based; conditions: one dose 10^-5 M, 48 h
T-47D = format: cell-based; conditions: one dose 10^-5 M, 48 h
EKVX = format: cell-based; conditions: one dose 10^-5 M, 48 h
LOX IMVI = format: cell-based; conditions: one dose 10^-5 M, 48 h
HCC-2998 = format: cell-based; conditions: one dose 10^-5 M, 48 h
SK-MEL-5 = format: cell-based; conditions: one dose 10^-5 M, 48 h
PC-3 = format: cell-based; conditions: one dose 10^-5 M, 48 h
SF-268 = format: cell-based; conditions: one dose 10^-5 M, 48 h
U251 = format: cell-based; conditions: 48 h
ACHN = format: cell-based; conditions: one dose 10^-5 M, 48 h
NCI-H23 = format: cell-based; conditions: one dose 10^-5 M, 48 h
M14 = format: cell-based; conditions: one dose 10^-5 M, 48 h
MOLT-4 = format: cell-based; conditions: one dose 10^-5 M, 48 h
SN12C = format: cell-based, human; conditions: one dose 10^-5 M, 48 h
MDA-MB-435 = format: cell-based; conditions: one dose 10^-5 M, 48 h
[1] = system: full NCI 60 cell lines panel; conditions: for activity on all 60 cancer cell lines tested (in words): one dose
RXF 393 = format: cell-based; conditions: one dose 10^-5 M, 48 h
CCRF-CEM = format: cell-based; conditions: one dose 10^-5 M, 48 h
OVCAR-4 = format: cell-based; conditions: one dose 10^-5 M, 48 h
UACC-257 = format: cell-based; conditions: one dose 10^-5 M, 48 h
HT29 = format: cell-based; conditions: 48 h
MDA-MB-231/ATCC = format: cell-based; conditions: one dose 10^-5 M, 48 h
TK-10 = format: cell-based; conditions: one dose 10^-5 M, 48 h
786-0 = format: cell-based; conditions: one dose 10^-5 M, 48 h
COLO 205 = format: cell-based; conditions: one dose 10^-5 M, 48 h
HS 578T = format: cell-based; conditions: one dose 10^-5 M, 48 h, HS 578T
MALME-3M = format: cell-based; conditions: one dose 10^-5 M, 48 h
OVCAR-8 = format: cell-based; conditions: one dose 10^-5 M, 48 h
CAKI-1 = format: cell-based; conditions: one dose 10^-5 M, 48 h
HL-60(TB) = format: cell-based; conditions: one dose 10^-5 M, 48 h
HOP-92 = format: cell-based; conditions: one dose 10^-5 M, 48 h
NCI-H522 = format: cell-based; conditions: one dose 10^-5 M, 48 h
SNB-75 = format: cell-based; conditions: Homo sapiens, one dose 10^-5 M, 48 h
[2] = Homo sapiens, read-out: % growth

For “3-Amino-4–(2,4-dichlorophenyl)-1H-pyrazolo[3,4-d] pyrimidine-6-thiol [Compound 3c]”, the “% growth” value (K-562; one dose 10^-5 M) was 105.30%, the “% growth” value (BT-549) was 100.27% and the “% growth” value (OVCAR-3) was 109.08%. The “% growth” value (HCT-15) was 111.27%, the “% growth” value (IGROV1; one dose 10^-5 M) was 105.59% and the “% growth” value (KM12) was 104.75%. The “% growth” value (SW-620) was 106.47%, the “% growth” value (SF-295) was 94.52% and the “% growth” value (UACC-62) was 93.81%. For the same compound, the “% growth” value (HCT-116) was 112.94%, the “% growth” value (SNB-19) was 93.39% and the “% growth” value (NCI-H460) was 115.81%. For the same compound, the “% growth” value (HOP-62) was 92.49%, the “% growth” value (UO-31) was 85.75% and the “% growth” value (SK-OV-3) was 86.72%. For the same compound, the “% growth” value (OVCAR-5) was 108.30%, the “% growth” value (SF-539) was 94.60% and the “% growth” value (A498) was 125.09%. For the same compound, the “% growth” value (MCF7) was 95.64%, the “% growth” value (MDA-MB-468) was 110.26% and the “% growth” value (NCI-H226) was 106.10%. For the same compound, the “% growth” value (SK-MEL-28) was 115.84%, the “% growth” value (DU-145) was 119.84% and the “% growth” value (RPMI-8226) was 108.63%. For the same compound, the “% growth” value (A549/ATCC) was 104.45%, the “% growth” value (SK-MEL-2) was 108.60% and the “% growth” value (NCI/ADR-RES) was 114.09%. For the same compound, the “% growth” value (SR) was 97.30%, the “% growth” value (T-47D) was 92.59% and the “% growth” value (EKVX) was 115.88%. For the same compound, the “% growth” value (LOX IMVI) was 106.21%, the “% growth” value (HCC-2998) was 103.06% and the “% growth” value (SK-MEL-5) was 108.42%. For the same compound, the “% growth” value (PC-3) was 96.81%, the “% growth” value (SF-268) was 108.35% and the “% growth” value (U251; one dose 10^-5 M) was 103.99%. For the same compound, the “% growth” value (ACHN) was 106.88%, the “% growth” value (NCI-H23) was 103.34% and the “% growth” value (M14) was 106.66%. The “% growth” value (MOLT-4) was 90.06%, the “% growth” value (SN12C) was 105.03% and the “% growth” value (MDA-MB-435) was 110.71%. The “activity on all 60 cancer cell lines tested (in words)” value [1] was “weak activity”, the Mean % growth ([1]; one dose 10^-5 M, 48 h, mean over all cell lines) was 104.17% and the “% growth” value (RXF 393) was 114.73%. The “% growth” value (CCRF-CEM) was 94.56%, the “% growth” value (OVCAR-4) was 105.05% and the “% growth” value (UACC-257) was 107.51%. For the same compound, the “% growth” value (HT29; one dose 10^-5 M) was 110.65%, the “% growth” value (MDA-MB-231/ATCC) was 94.87% and the “% growth” value (TK-10) was 146.75%. The “% growth” value (786-0) was 100.98%, the “% growth” value (COLO 205) was 120.01% and the “% growth” value (HS 578T) was 100.24%. For the same compound, the “% growth” value (MALME-3M) was 92.32%, the “% growth” value (OVCAR-8) was 109.69% and the “% growth” value (CAKI-1) was 96.86%. For the same compound, the “% growth” value (HL-60(TB)) was 89.08%, the “% growth” value (HOP-92) was 76.20% and the “% growth” value (NCI-H522) was 95.34%.
In the case of `CN(C)c1ccc(-c2nc(S)nc(N)c2C(=N)NN=Cc2ccc(Cl)cc2Cl)cc1` [Compound 4f, 4-amino-N'-[(2,4-dichlorophenyl)methylene]-6-[4-(dimethylamino)phenyl]-2-mercapto pyrimidine-5-carboximidohydrazide], the % growth at 10 µM (K-562; Homo sapiens, K562, one dose 10^-5 M) is reported as 70.2%, the % cell growth at 10 µM (BT-549; Homo sapiens) is reported as 119% and the % growth at 10 µM (OVCAR-3; Homo sapiens) is reported as 110%. For the same compound, the activity at 10 µM (HCT-15; [2]) was 76.7%, the activity at 10 µM (IGROV1; Homo sapiens, IGROV-1, one dose 10^-5 M, read-out: % growth) was 102% and the % growth at 10 µM (KM12; Homo sapiens) was 77.5%. The % growth at 10 µM (SW-620; Homo sapiens) was 100%, the % cell growth at 10 µM (SF-295; Homo sapiens) was 92.7% and the % growth at 10 µM (UACC-62; Homo sapiens) was 92.3%. For the same compound, the activity at 10 µM (HCT-116; [2]) was 67.7%, the activity at 10 µM (SNB-19; [2]) was 90.4% and the activity at 10 µM (NCI-H460; [2]) was 116%. The % growth at 10 µM (HOP-62; Homo sapiens) was 103%, the % growth at 10 µM (SNB-75) was 109% and the % cell growth at 10 µM (UO-31; Homo sapiens, UO-31, 48 h) was 70.2%. The % growth at 10 µM (SK-OV-3; Homo sapiens) was 125%, the percent cell growth at 10 µM (OVCAR-5; Homo sapiens) was 107% and the % growth at 10 µM (SF-539; Homo sapiens) was 81.6%. The % growth at 10 µM (A498; Homo sapiens) was 114%, the activity at 10 µM (MCF7; [2]) was 75.3% and the percent cell growth at 10 µM (MDA-MB-468; Homo sapiens) was 113%. The % growth at 10 µM (NCI-H226; Homo sapiens) was 95.5%, the % cell growth at 10 µM (SK-MEL-28; Homo sapiens) was 104% and the % growth at 10 µM (DU-145; Homo sapiens) was 111%. For the same compound, the % growth at 10 µM (RPMI-8226; Homo sapiens) was 80.6%, the % growth at 10 µM (A549/ATCC; Homo sapiens) was 107% and the % growth at 10 µM (SK-MEL-2; Homo sapiens) was 108%. The cell growth percent at 10 µM (NCI/ADR-RES; Homo sapiens) was 101%, the percent cell growth at 10 µM (SR; Homo sapiens) was 73.2% and the activity at 10 µM (T-47D; Homo sapiens, T47D, read-out: % growth) was 104%. The % cell growth at 10 µM (EKVX; Homo sapiens) was 102%, the activity at 10 µM (LOX IMVI; [2]) was 83.3% and the % growth at 10 µM (HCC-2998; Homo sapiens) was 115%. It also gave an activity at 10 µM (SK-MEL-5; [2]) of 99.3%, a percent cell growth at 10 µM (PC-3; Homo sapiens) of 89.8% and an activity at 10 µM (SF-268; [2]) of 100%. The % growth at 10 µM (U251; Homo sapiens, U-251, one dose 10^-5 M) was 93.2%, the % growth at 10 µM (ACHN; Homo sapiens) was 107% and the activity at 10 µM (NCI-H23; [2]) was 99.6%. For the same compound, the % growth at 10 µM (M14; Homo sapiens) was 103%, the activity at 10 µM (MOLT-4; [2]) was 100% and the % growth at 10 µM (SN12C; Homo sapiens) was 93.7%. For the same compound, the activity at 10 µM (MDA-MB-435; [2]) was 91.8%, the activity at 10 µM ([1]; Homo sapiens, 60 cell, 48 h, read-out: Mean % growth) was 98.9% and the “activity on all 60 cancer cell lines tested (in words)” value [1] was “weak activity”. For the same compound, the % cell growth at 10 µM (CCRF-CEM; Homo sapiens) was 83.7%, the % growth at 10 µM (OVCAR-4; Homo sapiens) was 104% and the percent cell growth at 10 µM (UACC-257; Homo sapiens) was 109%. The % growth at 10 µM (HT29; Homo sapiens, HT-29, one dose 10^-5 M) was 107%, the % growth at 10 µM (MDA-MB-231/ATCC; Homo sapiens) was 99.5% and the % cell growth at 10 µM (TK-10; Homo sapiens) was 114%. The % growth at 10 µM (786-0; Homo sapiens) was 84.9%, the % growth at 10 µM (COLO 205; Homo sapiens) was 166% and the activity at 10 µM (HS 578T; [2]) was 96.8%. It also gave a % growth at 10 µM (MALME-3M; Homo sapiens) of 96.8%, a % growth of cells at 10 µM (OVCAR-8; Homo sapiens) of 106% and a % growth at 10 µM (CAKI-1; Homo sapiens, CAKI-1, 48 h) of 102%. For the same compound, the % growth at 10 µM (HL-60(TB); Homo sapiens) was 88.4%, the % growth at 10 µM (HOP-92; Homo sapiens) was 106% and the % growth at 10 µM (NCI-H522; Homo sapiens) was 97.2%.
